Test results: patent US20230364075A1, “[…] DOSAGE FORMS COMPRISING DEUTETRABENAZINE” (AUSPEX PHARMACEUTICALS, INC., priority 2020, published 2023)

Assays:
[1] = Solubility of deutetrabenazine versus pH; format: physicochemical
Protocol: (§1) Deutetrabenazine is permeable through the small intestinal (SI) segments in a rat perfusion model.
The dosage forms disclosed herein were developed to achieve similar pharmacokinetics (PK) of 2 doses of AUSTEDO® 12 mg tablets with a single daily dose (QD).

[2] = in vivo; cited from earlier work
[3] = parameters: species or system human; conditions: in vivo
[4] = system: small intestinal (SI) segments; format: in vivo; conditions: rat
From the text: as §1

[5] = Particle size distribution by laser diffractometry (Mastersizer 3000); format: physicochemical; conditions: drug substance, Table 1
Protocol: Particle size distribution is determined by means of laser diffractometry. More specifically, the particle size distribution was determined using a Mastersizer 3000 from Malvern Instruments. The particle size determination may be carried out as a wet or dry measurement depending on the sample.
The deutetrabenazine particle size distributions following manufacture (untreated), micronization (air jet mill) and nano-milling (Dyno bead mill) are shown in Table 1.
Using a Mastersizer 3000 (Malvern Instruments), the following settings were used for dry measurement of the micro-milled and unmilled deutetrabenazine:
Using a Mastersizer 3000 (Malvern Instruments), the following settings were used for wet measurement of the nano-milled deutetrabenazine:
Deutetrabenazine particle size was reduced to a nanometer size (<1.0 micron) using a wet Dyno milling process in several passes. The milled deutetrabenazine was dispersed in excipient as above. The dispersion was passed through a 0.3 liter agitator bead mill containing 950 g of very high density zirconium oxide beads. The dispersion was passed through the agitator mill for up to 2 hrs to obtain particle size below 1.0 micron.

| solubility ([1]; acidic environment (pH<4)) | solubility ([1]; pH ≥4) | radioactive dose recovered in urine [3] | permeability through small intestinal (SI) segments [4] | ileum absorption ([4]; in vivo) | levels of absorption in the lower GI, order of segments ([4]; in vivo) | D10 [5] | D50 [5] | D90 [5] | Structure (SMILES) | half-life of active metabolites relative to tetrabenazine [2] |
| --- | --- | --- | --- | --- | --- | --- | --- | --- | --- | --- |
| relatively good solubility | < 2300 µg/mL | approximately 80% | permeable | about 0.0006 cm/sec | Jejunum<Mid-small intestine<Colon<Ileum |  |  |  | [2H]C([2H])([2H])Oc1cc2c(cc1OC([2H])([2H])[2H])[C@H]1CC(=O)[C@H](CC(C)C)CN1CC2 [Deutetrabenazine, (RR,SS)-1,3,4,6,7,11b-hexahydro-9,10-di(methoxy-D3)-3-(2-methylpropyl)-2H-benzo[a]quinolizin-2-one] | increased half-life |
|  |  |  |  |  |  | 1.08 μm | 3.31 μm | 7.05 μm | [2H]C([2H])([2H])Oc1cc2c(cc1OC([2H])([2H])[2H])C1CC(=O)C(CC(C)C)CN1CC2 (stereo not shown) [micro-milled] |  |
|  |  |  |  |  |  | 0.07 μm | 0.14 μm | 0.34 μm | [2H]C([2H])([2H])Oc1cc2c(cc1OC([2H])([2H])[2H])C1CC(=O)C(CC(C)C)CN1CC2 (stereo not shown) [nano-milled] |  |
